Laboratory results: patent US20130225633A1, “PHENYL HETEROCYCLOALKYL GLUCOCORTICOID RECEPTOR MODULATORS” (Corcept Therapeutics, Inc., priority 2012, published 2013)

Columns and labels:
[1] = target: T1, GR (TAT induction in HepG2 cells) (Homo sapiens, UniProt P04150); test: cell-based; conditions: read-out: GR functional Ki
T1 construct: host or cells: HepG2 (human hepatocellular carcinoma)
T1 sequence (P04150 1-777): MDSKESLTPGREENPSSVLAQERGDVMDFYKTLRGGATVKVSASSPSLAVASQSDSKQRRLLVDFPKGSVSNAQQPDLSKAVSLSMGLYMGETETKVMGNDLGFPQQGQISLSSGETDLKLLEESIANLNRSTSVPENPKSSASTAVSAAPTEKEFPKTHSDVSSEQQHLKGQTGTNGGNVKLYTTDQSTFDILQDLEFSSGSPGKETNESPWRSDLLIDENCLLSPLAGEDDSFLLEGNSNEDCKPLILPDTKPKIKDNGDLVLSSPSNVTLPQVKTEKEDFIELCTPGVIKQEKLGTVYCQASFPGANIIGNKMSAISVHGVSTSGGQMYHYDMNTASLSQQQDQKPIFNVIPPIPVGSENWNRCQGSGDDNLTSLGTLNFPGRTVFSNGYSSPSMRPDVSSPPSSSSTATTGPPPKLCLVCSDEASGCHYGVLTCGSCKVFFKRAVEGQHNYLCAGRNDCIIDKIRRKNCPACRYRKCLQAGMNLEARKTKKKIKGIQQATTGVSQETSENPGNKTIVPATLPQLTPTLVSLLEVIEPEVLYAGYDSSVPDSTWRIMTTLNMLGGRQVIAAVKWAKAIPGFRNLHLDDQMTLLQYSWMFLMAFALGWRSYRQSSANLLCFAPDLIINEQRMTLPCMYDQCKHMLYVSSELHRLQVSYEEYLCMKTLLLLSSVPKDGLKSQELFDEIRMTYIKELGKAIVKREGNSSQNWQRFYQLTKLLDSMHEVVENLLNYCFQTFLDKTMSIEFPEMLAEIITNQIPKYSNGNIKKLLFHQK
Procedure: Glucocorticoid mediated activation of TAT occurs by transactivation of glucocorticoid response elements in the TAT promoter by glucocorticoid receptor-agonist complex.
TAT activity was measured as outlined in the literature by A. Ali et al., J. Med. Chem., 2004, 47, 2441-2452.
HepG2 cells were cultured using MEME media supplemented with 10% (v/v) foetal bovine serum; 2 mM L-glutamine and 1% (v/v) NEAA at 37° C., 5%/95% (v/v) CO2/air. The HepG2 cells were counted and adjusted to yield a density of 0.125×10^6 cells/ml in RPMI 1640 without phenol red, 10% (v/v) charcoal stripped FBS, 2 mM L-glutamine and seeded at 25,000 cells/well in 200 μl into 96 well, sterile, tissue culture micro titre plates, and incubated at 37° C., 5% CO2 for 24 hours
Growth media was removed and replaced with assay media {RPMI 1640 without phenol red, 2 mM L-glutamine+10 μM forskolin}. […] Compounds were serially half log diluted in 100% (v/v) dimethylsupfoxide from a 10 mM stock.
HepG2 cells were then lysed with 30 μl of cell lysis buffer containing a protease inhibitor cocktail for 15 minutes at 4° C. 155 μl of substrate mixture was then added containing 5.4 mM Tyrosine sodium salt, 10.8 mM alpha ketoglutarate and 0.06 mM pyridoxal 5′ phosphate in 0.1M potassium phosphate buffer (pH 7.4). After 2 hours incubation at 37° C. the reaction was terminated by the addition of 15 μl of 10M aqueous potassium hydroxide solution, and the plates incubated for a further 30 minutes at 37° C. The TAT activity product was measured by absorbance at λ 340 nm.
[compound] and fitting the data to a 4 parameter logistic equation.

[2] = target: T2, human recombinant GR (Homo sapiens, UniProt P04150); test: Human GR fluorescence polarisation (FP) binding assay (Example 23)
T2 construct: purchased PanVera P2812
T2 sequence (P04150 1-777): T1 sequence (P04150 1-777)
Procedure: The following is a description of a FP assay for measuring compound inhibition of labelled glucocorticoid binding to the human recombinant GR.
The binding affinity of test compounds was determined using a FP binding assay using human recombinant GR (PanVera P2812) and a fluorescent labelled glucocorticoid ligand (Fluorome GS Red) (PanVera P2894). The presence of inhibitors prevents the formation of a GS Red/GR complex resulting in a decrease in the measured polarisation value. The change in polarisation value in the presence of test compounds is used to calculate the binding affinity of the compound for GR.
This assay was performed in 384 well, black, round-bottom, polypropylene micro titre plates in a final volume of 20 μl. The assay contained 5 μl 1 nM GR (final concentration), 5 μl 0.5 nM Fluorome GS Red (final concentration) in the presence of 10 μl test compounds. Positive control wells (high polarisation) receive, 10 μl 2% (v:v) DMSO vehicle (1% (v/v) final concentration)+5 μl 1 nM GR and 5 μl 0.5 nM Fluorome GS Red. […] Assay blank background wells (used for normalisation) receive 15 μl 1×GS screening buffer+5 μl GR.
For the IC50 determination (concentration of compound that displaces 50% of the bound GS Red), compounds were tested at eight different concentrations in duplicate in two independently performed experiments. Compounds were prepared as solubilised solids at 10 mM in DMSO. On the day of assay, an 8 point half-log serial dilution (55 μl DMSO+25 μl compound solution) was prepared. A 1:50 dilution (1 μl compound solution+49 μl 1×GR screening buffer) was prepared for each compound. The compounds were prepared at 2× final assay concentration.
The plates were mixed and incubated for 4 hour at room temperature. FP was measured using an Envision Excite plate reader with 535 nm excitation and 590 nm emission interference filters.
Milli-polarisation (mP) values were calculated using the below equation—
where S and P are assay blank background subtracted fluorescence units, G=G-factor (1.07).
Compound IC50 values were calculated by plotting a [compound] v. % inhibition curve and fitting the data to a 4-parameter logistic fit equation.
Reagents. 10×GR screening buffer (100 mM potassium phosphate pH 7.4, 200 mM Na2MoO4, 1 mM EDTA, 20% (v/v) DMSO). To prepare 1×GR screening buffer, combine 1 ml 10×GR screening buffer (PanVera P2814)+1 ml stabilising peptide (PanVera P2815)+7.95 ml 4° C. MQ water. Add 50 μl 1M DTT, vortex and place on ice until use.

[3] = target: T3, glucocorticoid receptors (GR) in SW1353/MMTV-5 cells (Homo sapiens, UniProt P04150); test: GR reporter gene assay using SW1353/MMTV-5 cells (Example 24); assay type: cell-based
T3 construct: contains endogenous glucocorticoid receptors; endogenous in cells; host or cells: SW1353/MMTV-5 (human chondrosarcoma, stably transfected with pMAMneo-Luc reporter only)
T3 sequence (P04150 1-777): T1 sequence (P04150 1-777)
Procedure: SW1353/MMTV-5 is an adherent human chondrosarcoma cell line that contains endogenous glucocorticoid receptors. It was transfected with a plasmid (pMAMneo-Luc) encoding firefly luciferase located behind a glucocorticoid-responsive element (GRE) derived from a viral promoter (long terminal repeat of mouse mammary tumor virus). A stable cell line SW1353/MMTV-5 was selected with geneticin, which was required to maintain this plasmid.
SW1353/MMTV-5 cells were distributed in 96-well plates and incubated in medium (without geneticin) for 24 hrs.

[4] = target: T4, human recombinant glucocorticoid receptor (Homo sapiens, UniProt P04150); test: Glucocorticoid receptor binding displacement assay with 3H-dexamethasone (Example 22); conditions: Examples 1-15: 3H-dexamethasone displacement assay of Example 22; read-out: GR binding Ki
T4 construct: This GR was a full-length steroid hormone receptor; host or cells: baculovirus-infected insect cells
T4 sequence (P04150 1-777): T1 sequence (P04150 1-777)
Procedure: Binding protocol: Compounds were tested in a binding displacement assay using human recombinant glucocorticoid receptor with ^3H-dexamethasone as the ligand. The source of the receptor was recombinant baculovirus-infected insect cells. This GR was a full-length steroid hormone receptor likely to be associated with heat-shock and other endogenous proteins.
For the IC50 determinations, test compounds were tested at 6 concentrations in duplicate. Test compounds were diluted from 10 mM stock in 100% DMSO. The tested solutions were prepared at 2× final assay concentration in 2% DMSO/assay buffer.
All reagents and the assay plate were kept on ice during the addition of reagents. The reagents were added to wells of a v-bottomed polypropylene plate in the following order: 25 μl of 10 nM 3H-dexamethasone solution, 50 μl of TB/NSB/compound solution and 25 μl of 2 nM GR solution. After the additions, the incubation mixture was mixed and incubated for 2.5 hrs at 4° C.
After 2.5 hrs incubation, unbound counts were removed with dextran coated charcoal (DCC) as follows: 15 μl of DCC solution (10% DCC in assay buffer) was added to all wells and mixed (total volume 115 μl). The plate was centrifuged at 4000 rpm for 10 minutes at 4° C. 75 μl of the supernatants was carefully pipetted into an optiplate. 150 μl of scintillation cocktail were added (Microscint-40, Perkin Elmer). The plate was vigorously shaken for approximately 10 minutes and counted on a Topcount.
The IC50 values were converted to Ki (the inhibition constant) using the Cheng-Prusoff equation.
Reagents: Assay buffer: 10 mM potassium phosphate buffer pH 7.6 containing 5 mM DTT, 10 mM sodium molybdate, 100 μM EDTA and 0.1% BSA.

COC[C@]12Cc3cnn(-c4ccc(F)cc4)c3C=C1CCN(S(=O)(=O)c1ccc(N3CCCCC3)cc1)C2 [Example 20, (R)-1-(4-Fluoro-phenyl)-6-[4-(piperidin-1-yl)-benzenesulfonyl]-4a-methoxymethyl-4,4a,5,6,7,8-hexahydro-1H-1,2,6-triaza-cyclopenta[b]naphthalene]
Ki [1]: 50 to 100 nM
Ki [2]: < 0.5 nM

COC[C@]12Cc3cnn(-c4ccc(F)cc4)c3C=C1CCN(S(=O)(=O)c1ccc(N3CCC[C@H]3C)cc1)C2 [Example 17, (R)-1-(4-Fluoro-phenyl)-6-[4-((R)-2-methylpyrrolidin-1-yl)-benzenesulfonyl]-4a-methoxymethyl-4,4a,5,6,7,8-hexahydro-1H-1,2,6-triaza-cyclopenta[b]naphthalene]
Ki [1]: > 100 nM
Ki [2]: < 0.5 nM

COC[C@@H]1CCCN1c1ccc(S(=O)(=O)N2CCC3=Cc4c(cnn4-c4ccc(F)cc4)C[C@]3(COC)C2)cc1 [Example 18, (R)-1-(4-Fluoro-phenyl)-6-[4-((S)-2-(methoxymethyl)pyrrolidin-1-yl)-benzenesulfonyl]-4a-methoxymethyl-4,4a,5,6,7,8-hexahydro-1H-1,2,6-triaza-cyclopenta[b]naphthalene]
Ki [1]: 50 to 100 nM
Ki [2]: 0.5 to 1 nM

COC[C@]12Cc3cnn(-c4ccc(F)cc4)c3C=C1CCN(S(=O)(=O)c1ccc(N3CC[C@H](OC)C3)cc1)C2 [Example 19, (R)-1-(4-Fluoro-phenyl)-6-[4-((S)-3-methoxypyrrolidin-1-yl)-benzenesulfonyl]-4a-methoxymethyl-4,4a,5,6,7,8-hexahydro-1H-1,2,6-triaza-cyclopenta[b]naphthalene]
Ki [1]: > 100 nM
Ki [2]: < 0.5 nM

O=S(=O)(c1ccc(N2CCCC2)cc1)N1CCC2=Cc3c(cnn3-c3ccc(F)cc3)C[C@]2(COCC2CC2)C1 [Example 8, (R)-4a-Cyclopropylmethoxymethyl-1-(4-fluoro-phenyl)-6-[4-(pyrrolidin-1-yl)-benzenesulfonyl]-4,4a,5,6,7,8-hexahydro-1H-1,2,6-triaza-cyclopenta[b]naphthalene]
Ki [3]: < 10 nM
Ki [4]: ≥ 1 nM

O=S(=O)(c1cccc(N2CC[C@H](F)C2)c1)N1CCC2=Cc3c(cnn3-c3ccc(F)cc3)C[C@]2(COCC2CC2)C1 [Example 2, (R)-4a-Cyclopropylmethoxymethyl-1-(4-fluorophenyl)-6-[3-((S)-3-fluoropyrrolidin-1-yl)-phenyl-3-sulfonyl]-4,4a,5,6,7,8-hexahydro-1H-1,2,6-triaza-cyclopenta[b]naphthalene]
Ki [3]: < 10 nM
Ki [4]: 0.5 to 1 nM

O=C(OCF)[C@]12Cc3cnn(-c4ccc(F)cc4)c3C=C1CCN(S(=O)(=O)c1cccc(N3CCCC3)c1)C2 [Example 15, (R)-1-(4-Fluoro-phenyl)-6-[3-(pyrrolidin-1-yl)-benzenesulfonyl]-1,4,5,6,7,8-hexahydro-1,2,6-triaza-cyclopenta[b]naphthalene-4a-carboxylic acid fluoromethyl ester]
Ki [3]: > 20 nM
Ki [4]: 0.5 to 1 nM

CCOC(=O)[C@]12Cc3cnn(-c4ccc(F)cc4)c3C=C1CCN(S(=O)(=O)c1cccc(N3CC[C@@H](F)C3)c1)C2 [Example 11, (R)-1-(4-Fluoro-phenyl)-6-[3-((R)-3-fluoro-pyrrolidin-1-yl)-benzenesulfonyl]-1,4,5,6,7,8-hexahydro-1,2,6-triaza-cyclopenta[b]naphthalene-4a-carboxylic acid ethyl ester]
Ki [3]: 10 to 20 nM
Ki [4]: 0.5 to 1 nM

O=S(=O)(c1ccc(N2CC[C@@H](F)C2)cc1)N1CCC2=Cc3c(cnn3-c3ccc(F)cc3)C[C@]2(COCC2CC2)C1 [Example 7, (R)-4a-Cyclopropylmethoxymethyl-1-(4-fluoro-phenyl)-6-[4-((R)-3-fluoro-pyrrolidin-1-yl)-benzenesulfonyl]-4,4a,5,6,7,8-hexahydro-1H-1,2,6-triaza-cyclopenta[b]naphthalene]
Ki [3]: < 10 nM
Ki [4]: < 0.5 nM

COC[C@]12Cc3cnn(-c4ccc(F)cc4)c3C=C1CCN(S(=O)(=O)c1cccc(N3CC[C@@H](F)C3)c1)C2 [Example 4, (R)-1-(4-Fluorophenyl)-6-[3-((R)-3-fluoropyrrolidin-1-yl)-benzenesulfonyl]-4a-methoxymethyl-4,4a,5,6,7,8-hexahydro-1H-1,2,6-triaza-cyclopenta[b]naphthalene]
Ki [3]: 10 to 20 nM
Ki [4]: ≥ 1 nM
